≈ marks a conversion by molar mass, not a printed value. Like-named read-outs stand apart in the source and are kept apart here.
Experiments:
[1] = tested on: Mycobacterium tuberculosis H37Rv (ATCC 27294); assay: Microplate Alamar Blue Assay (MABA): primary screening and MIC determination; format: cell-based; settings: retest at lower concentrations in the MABA
[2] = tested on: M. tuberculosis Erdman (ATCC 35801); assay: 90% and 99% effective concentration in M. tuberculosis infected macrophages; format: cell-based; settings: for EC99 / EC^+99: monolayers of mouse bone marrow macrophages; for EC99: […]% reduction in residual mycobacterial growth after 7 days compared with untreated controls; for EC^+99: reduction in residual mycobacterial growth after 7 days compared with untreated controls
[3] = Mycobacterium tuberculosis, read-out: MIC

Compound	MIC [1, 3]	melting point	also measured
Clc1ccc(Cn2cnc3c(-c4ccco4)nc(Cl)nc32)cc1 [Example 46, 2-Chloro-9-(4-chlorophenylmethyl)-6-(2-furyl)-9H-purine]	1.56 mg/L (≈ 4.52 µM)	–	–
COc1ccc(Cn2cnc3c(-c4ccco4)nc(Cl)nc32)cc1C [Example 53, 2-Chloro-6-(2-furyl)-9-(4-methoxy-3-methylphenylmethyl)-9H-purine]	0.78 mg/L (≈ 2.2 µM)	177 to 179 °C	–
Fc1ccc(Cn2cnc3c(-c4ccco4)nc(Cl)nc32)cc1 [Example 49, 2-Chloro-9-(4-fluorophenylmethyl)-6-(2-furyl)-9H-purine]	3.13 mg/L (≈ 9.52 µM)	152 to 155 °C	–
Clc1ccc(Cn2cnc3c(-c4ccco4)ncnc32)cc1Cl [Example 28, 9-(3,4-Dichlorophenylmethyl)-6-(2-furyl)-9H-purine]	6.25 mg/L (≈ 18.1 µM)	183 to 185 °C	–
2-Cyclopentenyl-6-(2-furyl)-9-(4-methoxyphenylmethyl)-9H-purine [Example 81]	–	–	MIC [1]: 6.25 mg/L
Clc1cccc(Cn2cnc3c(-c4ccco4)nc(Cl)nc32)c1 [Example 48, 2-Chloro-9-(3-chlorophenylmethyl)-6-(2-furyl)-9H-purine]	3.13 mg/L (≈ 9.07 µM)	196 to 198 °C	–
Clc1nc(-c2ccco2)c2ncn(Cc3ccc(Cl)c(Cl)c3)c2n1 [Example 47, 2-Chloro-9-(3,4-dichlorophenylmethyl)-6-(2-furyl)-9H-purine]	6.25 mg/L (≈ 16.5 µM)	191 to 193 °C	–
COc1cccc(Cn2cnc3c(-c4ccco4)ncnc32)c1 [Example 34, 6-(2-Furyl)-9-(3-methoxyphenylmethyl)-9H-purine]	6.25 mg/L (≈ 20.4 µM)	138 to 139 °C	–
COc1ccc(Cn2ccc3c(-c4ccco4)ncnc32)cc1 [Example 109, 4-(2-Furyl)-7-(4-methoxybenzyl)-7H-pyrrolo[2,3-d]pyrimidine]	0.39 mg/L (≈ 1.28 µM)	130 to 131 °C	–
COC(c1ccccc1)n1cnc2c(-c3cccs3)nc(Cl)nc21 (centres unmarked) [Example 55, 2-Chloro-9-(methoxyphenylmethyl)-6-(2-thienyl)-9H-purine]	0.78 mg/L (≈ 2.19 µM)	183 to 185 °C	–
Cc1ccc(Cn2cnc3c(-c4ccco4)ncnc32)cc1 [Example 31, 6-(2-Furyl)-9-(4-methylphenylmethyl)-9H-purine]	3.13 mg/L (≈ 10.8 µM)	166 to 167 °C	–
c1ccc(COc2ccc(Cn3cnc4c(-c5ccco5)ncnc43)cc2)cc1 [Example 40, 9-(4-Benzyloxyphenylmethyl)-6-(2-furyl)-9H-purine]	1.56 mg/L (≈ 4.08 µM)	145 to 146 °C	–
CC(C)(C)c1ccc(Cn2cnc3c(-c4ccco4)ncnc32)cc1 [Example 32, 9-(4-tert-Butylphenylmethyl)-6-(2-furyl)-9H-purine]	12.5 mg/L (≈ 37.6 µM)	185 to 187 °C	–
COc1cccc(Cn2cnc3c(-c4ccco4)nc(Cl)nc32)c1 [Example 52, 2-Chloro-6-(2-furyl)-9-(3-methoxyphenylmethyl)-9H-purine]	3.13 mg/L (≈ 9.19 µM)	160 to 161 °C	–
2-Chloro-6-(2-furyl)-9-(4-methyloxyphenylmethyl)-9H-purine [Example 50]	–	–	MIC [1]: 0.78 mg/L
Fc1ccc(Cn2cnc3c(-c4ccco4)ncnc32)cc1 [Example 29, 9-(4-Fluorophenylmethyl)-6-(2-furyl)-9H-purine]	6.25 mg/L (≈ 21.2 µM)	162 to 164 °C	–
Clc1ccc(Cn2cnc3c(-c4ccco4)ncnc32)cc1 [Example 27, 9-(4-Chlorophenylmethyl)-6-(2-furyl)-9H-purine]	6.25 mg/L (≈ 20.1 µM)	156 to 159 °C	–
CCOc1ccc(Cn2cnc3c(-c4ccco4)ncnc32)cc1 [Example 39, 9-(4-Ethoxyphenylmethyl)-6-(2-furyl)-9H-purine]	3.13 mg/L (≈ 9.77 µM)	165 to 166 °C	–
CN(C)c1ccc(Cn2cnc3c(-c4ccco4)ncnc32)cc1 [Example 43, 9-(4-Dimethylaminophenylmethyl)-6-(2-furyl)-9H-purine]	12.5 mg/L (≈ 39.1 µM)	158 to 160 °C	–
COc1ccc(Cn2cnc3c(-c4ccco4)nc(Cl)nc32)cc1 [Example 51, 2-Chloro-6-(2-furyl)-9-(4-methoxyphenylmethyl)-9H-purine]	0.39 mg/L (≈ 1.14 µM)	–	EC99 [2]: 0.67 µg/mL; EC^+99 [2]: 0.02 µg/mL
COc1ccc(Cn2cnc3c(-c4ccc(OC)cc4)nc(Cl)nc32)cc1 [Example 54, 2-Chloro-6-(4-methoxyphenyl)-9-(4-methoxyphenylmethyl)-9H-purine]	1.56 mg/L (≈ 4.1 µM)	152 to 154 °C	–
COc1ccc(Cn2cnc3c(-c4ccco4)nc(SC)nc32)cc1 [Example 68, 6-(2-Furyl)-9-(4-methoxyphenylmethyl)-2-methylthio-9H-purine]	0.78 mg/L (≈ 2.21 µM)	147 to 148 °C	–
CSc1ccc(Cn2cnc3c(-c4ccco4)ncnc32)cc1 [Example 42, 6-(2-Furyl)-9-(4-methylthiophenylmethyl)-9H-purine]	6.25 mg/L (≈ 19.4 µM)	157 to 159 °C	–
COc1ccc(Cn2cnc3c(-c4ccco4)ncnc32)cc1 [Example 33, 6-(2-Furyl)-9-(4-methoxyphenylmethyl)-9H-purine]	1.56 mg/L (≈ 5.09 µM)	175 to 176 °C	EC90/MIC ([2]; MIC data from Table 1): >8.01; EC99 [2]: >12.5 µg/mL; EC^+99 [2]: >12.5 µg/mL
COc1ccc(Cn2cnc3c(-c4ccco4)ncnc32)cc1C [Example 35, 6-(2-Furyl)-9-(4-methoxy-3-methylphenylmethyl)-9H-purine]	0.78 mg/L (≈ 2.43 µM)	169 to 170 °C	–
CC(=O)Nc1ccc(Cn2cnc3c(-c4ccco4)ncnc32)cc1 [Example 44, 9-(4-Acetamidophenylmethyl)-6-(2-furyl)-9H-purine]	–	278 to 280 °C	–
COc1ccc(Cn2cnc3c(-c4ccco4)nc([N+](=O)[O-])nc32)cc1 [Example 72, 6-(2-Furyl)-9-(4-methoxyphenylmethyl)-2-nitro-9H-purine]	–	182 to 183 °C	–
